For assay [1], the system named is naive-hESCs/hiPSCs. As to the kind of experiment: Signaling dependence of pluripotent cell lines, naive-hESC/hiPSC. The class given is cell-based, human. Conditions: grown in PD/CH/FK/LIF, inhibitor or factor added. As to the method:
(§1) Pluripotent cells were equally divided and plated on feeders in the indicated growth medium in which these cell lines are normally maintained, and 36 hours later the wells were supplemented with the indicated inhibitors or growth factors. After seven days, wells were fixed and stained to determine the relative percentage of colonies positive for pluripotency markers. SSEA1 staining was used for mouse stem cells. Colony formation was normalized to an internal control “Growth medium” without inhibitors (first left column). Normalized percentages lower than 5% are defined as “sensitivity” to the presence of the supplemented inhibitor. (B-C) Western blot analysis of total ERK1/2, phosphorylated ERK1/2 (pERK1/2) and phosphorylated Stat3 (pStat3). WIBR3 hESC and C1 hiPSC were grown in traditional bFGF/Activin containing media while naive-hESC/hiPSCs were grown in N2B27 PD/CH/FOR/LIF. ‘2×LIF’ indicates two fold increase in LIF concentration. (D) LIF/Stat3 is required for stabilization of naive-hESC/hiPSCs. Naïve NOD mESCs, WIBR3.5 and WIBR3.1 naive-hESC, and C1 naïve-hiPSCs were electroporated with a pBRY-CAGGS-flox-DsRedT4-IP control plasmid, a plasmid encoding a dominant negative Stat3 Y705F mutant (Stat3-DN), or a plasmid Stat3-C constitutively active mutant (pBRY-Stat3-CA). Cells were passaged three times in the presence of puromycin. After 20 days, colonies positive for pluripotency markers were counted and normalized to colonies from cells electroporated with empty vector (n=3 replicates for each condition). (E) RT-PCR expression of early germ cell markers in the presence or absence of BMP4/7/8 cytokines for 7 days. (F) Representative FISH analysis for XIST RNA (red) and Cot1 nuclear RNA (green). Pri-WIBR3.2 cell line was analyzed after passaging in conventional bFGF/serum-containing human ESC growth conditions. Numbers indicate average percentage of XIST positive nuclei counted.
(§2) Small molecules and cytokines were purchased from Tocris, Calbiochem or Sigma, and were supplemented as indicated at the following final concentration: JAK inhibitor (JAKi, 6 μM), Kenpaullone (KP, 5 μM), PD0325901 (PD, 1 μM); CHIR99021 (CH, […]), Forskolin (FK, 10 μM), FGF4-Receptor inhibitors PD173074 (0.1 μM) and SU5401 (2 μM); TGFβ/ALK inhibitors A83-01 (1 μM), RepSox (1 μM), ALK inhibitor (ALKi—SB431542, 2 μM); AICAR (0.5 mM); BixO1294 (1 μM); BayK8644 (1 μM); recombinant human BMP4 (10 ng/ml), recombinant human IL-6 (10 ng/ml), recombinant human TGFβ (500 ng/ml), Media with inhibitors was routinely replaced every 48 hours to sustain activity of compounds.

Assay [2] has as its system hESCs. The experiment in a line: Signaling dependence of pluripotent cell lines, conventional hESCs. The class given is cell-based, human. The following applies: normal growth medium, inhibitor or factor added. As to the method:
Pluripotent cells were equally divided and plated on feeders in the indicated growth medium in which these cell lines are normally maintained, and 36 hours later the wells were supplemented with the indicated inhibitors or growth factors. After seven days, wells were fixed and stained to determine the relative percentage of colonies positive for pluripotency markers. SSEA1 staining was used for mouse stem cells. Colony formation was normalized to an internal control “Growth medium” without inhibitors (first left column). […] (B-C) Western blot analysis of total ERK1/2, phosphorylated ERK1/2 (pERK1/2) and phosphorylated Stat3 (pStat3). WIBR3 hESC and C1 hiPSC were grown in traditional bFGF/Activin containing media while naive-hESC/hiPSCs were grown in N2B27 PD/CH/FOR/LIF. ‘2×LIF’ indicates two fold increase in LIF concentration. […] Cells were passaged three times in the presence of puromycin. […] (E) RT-PCR expression of early germ cell markers in the presence or absence of BMP4/7/8 cytokines for 7 days. (F) Representative FISH analysis for XIST RNA (red) and Cot1 nuclear RNA (green). Pri-WIBR3.2 cell line was analyzed after passaging in conventional bFGF/serum-containing human ESC growth conditions.

Assay [3] concerns mEpiSCs. The experiment in a line: Signaling dependence of pluripotent cell lines, mEpiSCs. In kind it is cell-based, mouse. The following applies: normal growth medium, inhibitor or factor added. The procedure: as §1, §2
The test system of assay [4] is VASA, BLIMP1 and DAZL in hESCs. As to the kind of experiment: RT-PCR of early germ cell markers, hESCs. In kind it is cell-based, human. The following applies: 7 days. The procedure:
(§3) Pluripotent cells were equally divided and plated on feeders in the indicated growth medium in which these cell lines are normally maintained, and 36 hours later the wells were supplemented with the indicated inhibitors or growth factors. After seven days, wells were fixed and stained to determine the relative percentage of colonies positive for pluripotency markers. SSEA1 staining was used for mouse stem cells. Colony formation was normalized to an internal control “Growth medium” without inhibitors (first left column). Normalized percentages lower than 5% are defined as “sensitivity” to the presence of the supplemented inhibitor. (B-C) Western blot analysis of total ERK1/2, phosphorylated ERK1/2 (pERK1/2) and phosphorylated Stat3 (pStat3). WIBR3 hESC and C1 hiPSC were grown in traditional bFGF/Activin containing media while naive-hESC/hiPSCs were grown in N2B27 PD/CH/FOR/LIF. ‘2×LIF’ indicates two fold increase in LIF concentration. (D) LIF/Stat3 is required for stabilization of naive-hESC/hiPSCs. […] After 20 days, colonies positive for pluripotency markers were counted and normalized to colonies from cells electroporated with empty vector (n=3 replicates for each condition). […] Pri-WIBR3.2 cell line was analyzed after passaging in conventional bFGF/serum-containing human ESC growth conditions. Numbers indicate average percentage of XIST positive nuclei counted. […]

The subject of assay [5] is VASA, BLIMP1 and DAZL in naive-hESCs. As to the kind of experiment: RT-PCR of early germ cell markers, naive-hESCs. In kind it is cell-based, human. The following applies: 7 days. As to the method: as §3
The subject of assay [6] is 129 mES cells. As to the kind of experiment: Dependence of pluripotency on signaling pathways, 129 mES. In kind it is cell-based, mouse. The following applies: mESM, Day 6. As to the method: (§4) FIG. 21 illustrates the dependence of pluripotency states on distinct signaling pathways. 129 mES or EpiSC cell samples were equally divided and plated on irradiated MEFs in the indicated growth conditions (mESM or epiESM) in which these cell lines are normally maintained, and 24 hours later the wells were supplemented with either JAKi or ALKi or were kept without any inhibitor. Representative images at Day 6 of the experiment are shown. EpiSC cells as previously described, differentiated upon introduction of ALK inhibitors, while mES cells differentiate upon blocking of Stat3 signaling by the JAK inhibitor.

Assay [7] deals with 129 EpiSC cells. The experiment in a line: Dependence of pluripotency on signaling pathways, EpiSC. In kind it is cell-based, mouse. The following applies: epiESM, Day 6. As to the method: as §4
For assay [8], the system named is mESCs. The experiment in a line: Signaling dependence of pluripotent cell lines, mESCs. In kind it is cell-based, mouse. The following applies: normal growth medium, inhibitor or factor added. The procedure: Pluripotent cells were equally divided and plated on feeders in the indicated growth medium in which these cell lines are normally maintained, and 36 hours later the wells were supplemented with the indicated inhibitors or growth factors. After seven days, wells were fixed and stained to determine the relative percentage of colonies positive for pluripotency markers. SSEA1 staining was used for mouse stem cells. Colony formation was normalized to an internal control “Growth medium” without inhibitors (first left column). Normalized percentages lower than 5% are defined as “sensitivity” to the presence of the supplemented inhibitor. (B-C) Western blot analysis of total ERK1/2, phosphorylated ERK1/2 (pERK1/2) and phosphorylated Stat3 (pStat3). WIBR3 hESC and C1 hiPSC were grown in traditional bFGF/Activin containing media while naive-hESC/hiPSCs were grown in N2B27 PD/CH/FOR/LIF. ‘2×LIF’ indicates two fold increase in LIF concentration. (D) LIF/Stat3 is required for stabilization of naive-hESC/hiPSCs. Naïve NOD mESCs, WIBR3.5 and WIBR3.1 naive-hESC, and C1 naïve-hiPSCs were electroporated with a pBRY-CAGGS-flox-DsRedT4-IP control plasmid, a plasmid encoding a dominant negative Stat3 Y705F mutant (Stat3-DN), or a plasmid Stat3-C constitutively active mutant (pBRY-Stat3-CA). Cells were passaged three times in the presence of puromycin. After 20 days, colonies positive for pluripotency markers were counted and normalized to colonies from cells electroporated with empty vector (n=3 replicates for each condition). (E) RT-PCR expression of early germ cell markers in the presence or absence of BMP4/7/8 cytokines for 7 days. (F) Representative FISH analysis for XIST RNA (red) and Cot1 nuclear RNA (green). Pri-WIBR3.2 cell line was analyzed after passaging in conventional bFGF/serum-containing human ESC growth conditions. Numbers indicate average percentage of XIST positive nuclei counted. […]

Assay [9] concerns naive human pluripotent stem cells. As to the kind of experiment: Long-term propagation of naive human pluripotent stem cells. In kind it is cell-based. Conditions: genetically unmodified forskolin-dependent naive cells. As to the method:
Naïve human pluripotent cells were grown in serum-free N2B27 based media. 500 ml of media was generated by including: 240 ml of DMEM/F12 (Invitrogen #11320), 240 ml of Neurobasal media (Invitrogen #21103), 5 ml of N2 supplement (Invitrogen #17502048), 10 ml B27 supplement (17504044), 10 μg of recombinant human LIF (Millipore, LIF1005), 1 mM glutamine (Invitrogen), 1% nonessential amino acids (Invitrogen), 0.1 mM β-mercaptoethanol (Sigma), pen/strep (Invitrogen), 5 mg/ml bovine serum albumin (Sigma) and small molecule inhibitors as indicated. Naïve-hESCs/hiPSCs were kept on mitomycin C (MMC)-inactivated mouse embryonic fibroblast (MEF) feeder cells, unless indicated otherwise, and where passage by single cell trypsinization every 5-10 days. Throughout the manuscript, indicated passage numbers of naïve-hiPSC/hESCs indicates number of passages counted after induction of the naïve state. The C1 secondary fibroblast cells (19), harbors Doxycycline (DOX) lentiviral vectors encoding Oct4, Sox2 and Klf4 reprogramming factors (45) and a constitutively active lentivirus encoding the reverse tetracycline transactivator (19), were grown in the presence of Dox in N2B27 media supplemented with different inhibitor combinations on gelatin coated plates, until initial PSC colonies were observed and subcloned. Mouse EpiSCs were derived and propagated as previously described (3,4). […]

As to “BMP4: recombinant human BMP4 growth factor”, in [1], the “effect on pluripotency of naive-hESCs/hiPSCs” value (from here on “effect … of naive-hESCs/hiPSCs”) was “but not of naive-hESCs/hiPSCs or mESCs”. In addition, the “effect on pluripotency of conventional hESCs” value (shortened to “effect … of conventional hESCs”) in [2] was “resulted in the differentiation”. Further, the “effect on pluripotency of mEpiSCs” value in assay [3] is on record as “resulted in the differentiation”. Besides, the “activation of germ cell markers VASA, BLIMP1 and DAZL in hESCs” value in assay [4] is given as “readily activated”. Besides, the “activation of germ cell markers VASA, BLIMP1 and DAZL in naive-hESCs” value in [5] is reported as “no up-regulation”.
Take `CC(C)(C)c1nc2c3cc[nH]c(=O)c3c3cc(F)ccc3c2[nH]1` [JAKi]: the “effect on pluripotency of 129 mES cells” value in [6] is “differentiate”. Further, in assay [1], the “effect … of naive-hESCs/hiPSCs” value is recorded as “readily differentiated”. In [2], the “effect … of conventional hESCs” value is recorded as “resistant”.
In the case of `NC(=O)c1ccc(-c2nc(-c3ccc4c(c3)OCO4)c(-c3ccccn3)[nH]2)cc1` [ALKi], the “effect on pluripotency of EpiSC cells” value in assay [7] was “differentiated”. The “effect … of naive-hESCs/hiPSCs” value in assay [1] is on record as “maintained their pluripotent state”. Besides, in [2], the “effect … of conventional hESCs” value was “rapidly differentiated”. Also, the “effect on pluripotency of mEpiSCs” value in assay [3] was “rapidly differentiated”. Moreover, the “effect on pluripotency of mESCs” value in assay [8] is recorded as “maintained their pluripotent state”.
Turning to `C=C[C@@]1(C)CC(=O)[C@]2(O)[C@@]3(C)[C@@H](O)CCC(C)(C)[C@@H]3[C@H](O)[C@H](OC(C)=O)[C@@]2(C)O1` [Forskolin], in [9], the “number of passages cells could be maintained” value was 15-20 passages.
